Square brackets hold non-standard residues; d marks the D form. Ends that are not written are not given here. Peptide text beside a SMILES is read from it. pY = N[C@@H](Cc1ccc(OP(=O)(O)O)cc1)C(=O)O
T1: SOCS-3 (Mus musculus, UniProt O35718)
T1 construct: hexahistidine (pET15b) (N); made in house; host or cells: E. coli BL21 DE3 pLysS
T1 sequence (O35718 1-225): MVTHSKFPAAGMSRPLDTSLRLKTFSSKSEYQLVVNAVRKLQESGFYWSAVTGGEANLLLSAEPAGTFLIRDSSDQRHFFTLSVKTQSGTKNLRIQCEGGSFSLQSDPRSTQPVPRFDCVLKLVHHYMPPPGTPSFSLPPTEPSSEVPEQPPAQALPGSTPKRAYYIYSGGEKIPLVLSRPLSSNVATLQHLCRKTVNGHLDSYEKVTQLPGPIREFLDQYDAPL

T2: SOCS-3 (recombinant, His-tagged) (mouse, UniProt O35718)
T2 chain: T1 sequence (O35718 1-225)

B1: AcE(pY)STVVHSG (peptide)
chain: Ac-E[pY]STVVHSG-NH2
SMILES: CC(=O)N[C@@H](CCC(=O)O)C(=O)N[C@@H](Cc1ccc(OP(=O)(O)O)cc1)C(=O)N[C@@H](CO)C(=O)N[C@H](C(=O)N[C@H](C(=O)N[C@H](C(=O)N[C@@H](Cc1c[nH]cn1)C(=O)N[C@@H](CO)C(=O)NCC(N)=O)C(C)C)C(C)C)[C@@H](C)O
B2: gp130 phosphopeptide V12A (peptide)
chain: STASTVE[pY]STVAHSG-NH2
modifications: N-terminus assumed
SMILES: CC(C)[C@H](NC(=O)[C@@H](NC(=O)[C@H](CO)NC(=O)[C@H](Cc1ccc(OP(=O)(O)O)cc1)NC(=O)[C@H](CCC(=O)O)NC(=O)[C@@H](NC(=O)[C@@H](NC(=O)[C@H](CO)NC(=O)[C@H](C)NC(=O)[C@@H](NC(=O)[C@@H](N)CO)[C@@H](C)O)[C@@H](C)O)C(C)C)[C@@H](C)O)C(=O)N[C@@H](C)C(=O)N[C@@H](Cc1c[nH]cn1)C(=O)N[C@@H](CO)C(=O)NCC(N)=O
B3: gp130 phosphopeptide H13A (peptide)
chain: STASTVE[pY]STVVASG-NH2
modifications: N-terminus assumed
SMILES: CC(C)[C@H](NC(=O)[C@@H](NC(=O)[C@@H](NC(=O)[C@H](CO)NC(=O)[C@H](Cc1ccc(OP(=O)(O)O)cc1)NC(=O)[C@H](CCC(=O)O)NC(=O)[C@@H](NC(=O)[C@@H](NC(=O)[C@H](CO)NC(=O)[C@H](C)NC(=O)[C@@H](NC(=O)[C@@H](N)CO)[C@@H](C)O)[C@@H](C)O)C(C)C)[C@@H](C)O)C(C)C)C(=O)N[C@@H](C)C(=O)N[C@@H](CO)C(=O)NCC(N)=O
B4: AcTVE(pY)STVVHSG (peptide)
chain: Ac-TVE[pY]STVVHSG-NH2
SMILES: CC(=O)N[C@H](C(=O)N[C@H](C(=O)N[C@@H](CCC(=O)O)C(=O)N[C@@H](Cc1ccc(OP(=O)(O)O)cc1)C(=O)N[C@@H](CO)C(=O)N[C@H](C(=O)N[C@H](C(=O)N[C@H](C(=O)N[C@@H](Cc1c[nH]cn1)C(=O)N[C@@H](CO)C(=O)NCC(N)=O)C(C)C)C(C)C)[C@@H](C)O)C(C)C)[C@@H](C)O
B5: AcVA(pY)STVVHSG (peptide)
chain: Ac-VA[pY]STVVHSG-NH2
SMILES: CC(=O)N[C@H](C(=O)N[C@@H](C)C(=O)N[C@@H](Cc1ccc(OP(=O)(O)O)cc1)C(=O)N[C@@H](CO)C(=O)N[C@H](C(=O)N[C@H](C(=O)N[C@H](C(=O)N[C@@H](Cc1c[nH]cn1)C(=O)N[C@@H](CO)C(=O)NCC(N)=O)C(C)C)C(C)C)[C@@H](C)O)C(C)C
B6: Ac(pY)STVVHSG (peptide)
chain: Ac-[pY]STVVHSG-NH2
SMILES: CC(=O)N[C@@H](Cc1ccc(OP(=O)(O)O)cc1)C(=O)N[C@@H](CO)C(=O)N[C@H](C(=O)N[C@H](C(=O)N[C@H](C(=O)N[C@@H](Cc1c[nH]cn1)C(=O)N[C@@H](CO)C(=O)NCC(N)=O)C(C)C)C(C)C)[C@@H](C)O

The molecules below were run against T1, SOCS-3 (assay: Competitive binding assay on the Biosensor: soluble peptide displaces SOCS-3 from immobilized gp130 (750-764) phosphopeptide). Conditions: IC50, Table 2, gp130(750-764) phosphopeptide and analogues.
Set-up: species or system murine
Procedure: Purified protein was refolded by dialysis into PBS containing 2 mM DTT, 2 mM EDTA and 0.02% v/v Tween 20. Refolded material was purified to homogeneity by ion exchange chromatography on a Mono S column (Pharmacia).
Samples were left overnight at 4° C. prior to analysis on the Biosensor so that the rate of protein loss due to absorption was minimal through the course of the experiment.
The inventors also used this competition assay to reassess the potential solution binding of the phosphopeptides listed in FIG. 1A.

`CC(C)[C@H](NC(=O)[C@@H](NC(=O)[C@H](CO)NC(=O)[C@H](Cc1ccc(OP(=O)(O)O)cc1)NC(=O)[C@H](CCC(=O)O)NC(=O)[C@@H](NC(=O)[C@@H](NC(=O)[C@H](CO)NC(=O)[C@H](C)NC(=O)[C@@H](NC(=O)[C@@H](N)CO)[C@@H](C)O)[C@@H](C)O)C(C)C)[C@@H](C)O)C(=O)N[C@@H](C)C(=O)N[C@@H](Cc1c[nH]cn1)C(=O)N[C@@H](CO)C(=O)NCC(N)=O` [STASTVE(pY)STVAHSG] (H-STASTVE[pY]STVAHSG-NH2; N-terminus assumed) and `CC(C)[C@H](NC(=O)[C@@H](NC(=O)[C@@H](NC(=O)[C@H](CO)NC(=O)[C@H](Cc1ccc(OP(=O)(O)O)cc1)NC(=O)[C@H](CCC(=O)O)NC(=O)[C@@H](NC(=O)[C@@H](NC(=O)[C@H](CO)NC(=O)[C@H](C)NC(=O)[C@@H](NC(=O)[C@@H](N)CO)[C@@H](C)O)[C@@H](C)O)C(C)C)[C@@H](C)O)C(C)C)C(N)=O` [STASTVE(pY)STVV] (H-STASTVE[pY]STVV-NH2; N-terminus assumed) are the same in IC50: 1100 nM for the first, 1100 nM for the second.

Same assay, conditions: relative to gp130 (750-764) parent phosphopeptide

Compared with `CC(=O)N[C@@H](Cc1ccc(OP(=O)(O)O)cc1)C(=O)N[C@@H](CO)C(=O)N[C@H](C(=O)N[C@H](C(=O)N[C@H](C(=O)N[C@@H](Cc1c[nH]cn1)C(=O)N[C@@H](CO)C(=O)NCC(N)=O)C(C)C)C(C)C)[C@@H](C)O` [Ac(pY)STVVHSG] (Ac-[pY]STVVHSG-NH2), `CC(=O)N[C@@H](CCC(=O)O)C(=O)N[C@@H](Cc1ccc(OP(=O)(O)O)cc1)C(=O)N[C@@H](CO)C(=O)N[C@H](C(=O)N[C@H](C(=O)N[C@H](C(=O)N[C@@H](Cc1c[nH]cn1)C(=O)N[C@@H](CO)C(=O)NCC(N)=O)C(C)C)C(C)C)[C@@H](C)O` [AcE(pY)STVVHSG] (Ac-E[pY]STVVHSG-NH2) is lower in “IC50 analogue/IC50 wild-type” value: 87 for the first, 8.8 for the second.

First: CC(=O)N[C@@H](C)C(=O)N[C@@H](CCC(=O)O)C(=O)N[C@@H](Cc1ccc(OP(=O)(O)O)cc1)C(=O)N[C@@H](CO)C(=O)N[C@H](C(=O)N[C@H](C(=O)N[C@H](C(=O)N[C@@H](Cc1c[nH]cn1)C(=O)N[C@@H](CO)C(=O)NCC(N)=O)C(C)C)C(C)C)[C@@H](C)O [AcAE(pY)STVVHSG] (Ac-AE[pY]STVVHSG-NH2)
Second: CC(=O)N[C@H](C(=O)N[C@H](C(=O)N[C@@H](CCC(=O)O)C(=O)N[C@@H](Cc1ccc(OP(=O)(O)O)cc1)C(=O)N[C@@H](CO)C(=O)N[C@H](C(=O)N[C@H](C(=O)N[C@H](C(=O)N[C@@H](Cc1c[nH]cn1)C(=O)N[C@@H](CO)C(=O)NCC(N)=O)C(C)C)C(C)C)[C@@H](C)O)C(C)C)[C@@H](C)O [AcTVE(pY)STVVHSG]
The “IC50 analogue/IC50 wild-type” value of the first is higher: 5.3 for the first, 1.1 for the second.

Compared with `CC(=O)N[C@H](C(=O)N[C@@H](C)C(=O)N[C@@H](Cc1ccc(OP(=O)(O)O)cc1)C(=O)N[C@@H](CO)C(=O)N[C@H](C(=O)N[C@H](C(=O)N[C@H](C(=O)N[C@@H](Cc1c[nH]cn1)C(=O)N[C@@H](CO)C(=O)NCC(N)=O)C(C)C)C(C)C)[C@@H](C)O)C(C)C` [AcVA(pY)STVVHSG] (Ac-VA[pY]STVVHSG-NH2), `CC(C)[C@H](NC(=O)[C@@H](NC(=O)[C@@H](NC(=O)[C@H](CO)NC(=O)[C@H](Cc1ccc(OP(=O)(O)O)cc1)NC(=O)[C@H](CCC(=O)O)NC(=O)[C@@H](NC(=O)[C@@H](NC(=O)[C@H](CO)NC(=O)[C@H](C)NC(=O)[C@@H](NC(=O)[C@@H](N)CO)[C@@H](C)O)[C@@H](C)O)C(C)C)[C@@H](C)O)C(C)C)C(=O)N[C@@H](Cc1c[nH]cn1)C(N)=O` [STASTVE(pY)STVVH] (H-STASTVE[pY]STVVH-NH2; N-terminus assumed) is lower in “IC50 analogue/IC50 wild-type” value: 5.0 for the first, 0.70 for the second.

First: CC(C)[C@H](NC(=O)[C@@H](NC(=O)[C@@H](NC(=O)[C@H](C)NC(=O)[C@H](Cc1ccc(OP(=O)(O)O)cc1)NC(=O)[C@H](CCC(=O)O)NC(=O)[C@@H](NC(=O)[C@@H](NC(=O)[C@H](CO)NC(=O)[C@H](C)NC(=O)[C@@H](NC(=O)[C@@H](N)CO)[C@@H](C)O)[C@@H](C)O)C(C)C)[C@@H](C)O)C(C)C)C(=O)N[C@@H](Cc1c[nH]cn1)C(=O)N[C@@H](CO)C(=O)NCC(N)=O [STASTVE(pY)ATVVHSG] (H-STASTVE[pY]ATVVHSG-NH2; N-terminus assumed)
Second: CC(C)[C@H](NC(=O)[C@H](C)NC(=O)[C@@H](NC(=O)[C@H](CO)NC(=O)[C@H](Cc1ccc(OP(=O)(O)O)cc1)NC(=O)[C@H](CCC(=O)O)NC(=O)[C@@H](NC(=O)[C@@H](NC(=O)[C@H](CO)NC(=O)[C@H](C)NC(=O)[C@@H](NC(=O)[C@@H](N)CO)[C@@H](C)O)[C@@H](C)O)C(C)C)[C@@H](C)O)C(=O)N[C@@H](Cc1c[nH]cn1)C(=O)N[C@@H](CO)C(=O)NCC(N)=O [STASTVE(pY)STAVHSG] (H-STASTVE[pY]STAVHSG-NH2; N-terminus assumed)
The “IC50 analogue/IC50 wild-type” value of the first is lower: 0.65 for the first, 31 for the second.

First: CC(C)[C@H](NC(=O)[C@@H](NC(=O)[C@H](CO)NC(=O)[C@H](Cc1ccc(OP(=O)(O)O)cc1)NC(=O)[C@H](CCC(=O)O)NC(=O)[C@@H](NC(=O)[C@@H](NC(=O)[C@H](CO)NC(=O)[C@H](C)NC(=O)[C@@H](NC(=O)[C@@H](N)CO)[C@@H](C)O)[C@@H](C)O)C(C)C)[C@@H](C)O)C(=O)N[C@@H](C)C(=O)N[C@@H](Cc1c[nH]cn1)C(=O)N[C@@H](CO)C(=O)NCC(N)=O [STASTVE(pY)STVAHSG] (H-STASTVE[pY]STVAHSG-NH2; N-terminus assumed)
Second: CC(C)[C@H](NC(=O)[C@@H](NC(=O)[C@@H](NC(=O)[C@H](CO)NC(=O)[C@H](Cc1ccc(OP(=O)(O)O)cc1)NC(=O)[C@H](CCC(=O)O)NC(=O)[C@@H](NC(=O)[C@@H](NC(=O)[C@H](CO)NC(=O)[C@H](C)NC(=O)[C@@H](NC(=O)[C@@H](N)CO)[C@@H](C)O)[C@@H](C)O)C(C)C)[C@@H](C)O)C(C)C)C(=O)N[C@@H](Cc1c[nH]cn1)C(=O)N[C@@H](CO)C(N)=O [STASTVE(pY)STVVHS]
The “IC50 analogue/IC50 wild-type” value of the first is higher: 10 for the first, 0.55 for the second.

Going from `CC(C)[C@H](NC(=O)[C@@H](NC(=O)[C@@H](NC(=O)[C@H](CO)NC(=O)[C@H](Cc1ccc(OP(=O)(O)O)cc1)NC(=O)[C@H](CCC(=O)O)NC(=O)[C@@H](NC(=O)[C@@H](NC(=O)[C@H](CO)NC(=O)[C@H](C)NC(=O)[C@@H](NC(=O)[C@@H](N)CO)[C@@H](C)O)[C@@H](C)O)C(C)C)[C@@H](C)O)C(C)C)C(=O)N[C@@H](C)C(=O)N[C@@H](CO)C(=O)NCC(N)=O` [STASTVE(pY)STVVASG] (H-STASTVE[pY]STVVASG-NH2; N-terminus assumed) to `CC(C)[C@H](NC(=O)[C@@H](NC(=O)[C@@H](NC(=O)[C@H](CO)NC(=O)[C@H](Cc1ccc(OP(=O)(O)O)cc1)NC(=O)[C@H](CCC(=O)O)NC(=O)[C@@H](NC(=O)[C@@H](NC(=O)[C@H](CO)NC(=O)[C@H](C)NC(=O)[C@@H](NC(=O)[C@@H](N)CO)[C@@H](C)O)[C@@H](C)O)C(C)C)[C@@H](C)O)C(C)C)C(N)=O` [STASTVE(pY)STVV] (H-STASTVE[pY]STVV-NH2; N-terminus assumed), the “IC50 analogue/IC50 wild-type” value rises from 7.0 to 10.

Biological target: T2, SOCS-3 (recombinant, His-tagged)
Experiment: competition, SPR
Conditions: not given

B1 and B2 are within 1.5-fold of each other in IC50: 970 nM for the first, 1100 nM for the second.

First: B3
Second: B4
The IC50 of the first is 6.4-fold higher: 770 nM for the first, 120 nM for the second.

Compared with B5, B6 is 17-fold higher in IC50: 550 nM for the first, 9600 nM for the second. The first is the more potent here.

Source: patent publication US7256007B2, “Methods of regulating cytokine signalling” (The Walter and Eliza Hall Institute of Medical Research, priority 2000, dated 2007)
